Measured values published in patent publication US20110319347A1, “ANTIOXIDANT AGENT” (priority 2009, published 2011).

Columns and labels:
[1] = β-carotene bleaching method (carotene-linoleic acid autoxidation); type: biochemical; conditions: for BHT-Relative Antioxidant Ability (%) β-Carotene Method: sample concentration 5 μM, 50 minutes at 50° C., absorbance at 492 nm, relative to 5 μM BHT; for Antioxidant ability (β-carotene method) compared in words with BHT or Pro-His-His: 5 μM
Excerpt: (§1) The antioxidant action of a peptide may be determined by a known method such as DPPH method or β-carotene bleaching method (see, e.g., Chen, H M., Muramoto, K., Yamauchi, F., and Nokihara, K., J. Agric. Food Chem., 44, 2619-2623, 1996. Antioxidant Activity of Designed Peptides Based on the Antioxidative Peptide Isolated from Digests of a Soybean Protein). DPPH method is to measure radical scavenging ability using 1,1-diphenyl-2-picrylhydrazyl (DPPH). […] In addition, the level of an antioxidant action can be evaluated by the degree of decrease of absorbance. β-carotene bleaching method is to calculate antioxidant ability of an analyte by autoxidizing a mixture of β-carotene, linoleic acid and the analyte and measuring suppression of β-carotene oxidization. […] In addition, the level of an antioxidant action can be evaluated by the degree of decrease of absorbance. Such known evaluation methods as described above reflect a part of antioxidant mechanisms which act in a living body in parallel.
β-carotene was dissolved in chloroform to prepare 1 mg/mL solution. Linoleic acid was dissolved in chloroform to prepare 0.1 g/mL solution. Tween 40 was dissolved in chloroform to prepare 0.2 g/mL solution. Into 100 mL recovery flasks, 0.15 mL of β-carotene solution in chloroform, 0.1 mL of linoleic acid solution in chloroform, and 0.3 mL of Tween 40 solution in chloroform were aliquoted, and the mixed solution was evaporated to dryness with an evaporator until the smell of chloroform was completely disappeared. The dried mixture was dissolved in 30 mL of pure water, and 2.7 mL of 0.2 M phosphate buffer (pH 6.8) was further added thereto, followed by gentle stirring to prepare carotene-linoleic acid solution. Next, the peptides obtained in Example 1 were dissolved in ethanol to prepare 1 mL of 0.05 mM peptide solutions, respectively.
Thereafter, 0.45 mL of carotene-linoleic acid solution and 0.05 mL of undiluted sample solution were mixed and stirred (sample concentration: 5 μM), and the reaction was allowed to proceed for 50 minutes at 50° C. Five minutes and 50 minutes after the start of the reaction, the absorbance at OD 492 nm was measured with a UV-VIS spectrophotometer. For blanks, a blank solution was prepared using the same volume of distilled water instead of carotene-linoleic acid solution, and the absorbance of the blank solution was measured via the same reaction condition. For controls, a control solution was prepared using ethanol instead of sample solutions, and the absorbance of the control solution was measured via the same reaction condition.
The antioxidant ability was calculated according to the following formula.
Antioxidant ability(%)=[1-−A5S−A50S)/(A5C−A50C)]×100
A5C=The absorbance of the control after 5-minute reaction. A5S=The absorbance of the sample after 5-minute reaction. A50C=The absorbance of the control after 50-minute reaction. A50S=The absorbance of the sample after 50-minute reaction.
(§2) The BHT-relative antioxidant ability was calculated according to the following formula.
BHT-Relative Antioxidant Ability(%)=[AntOx(%)]/[5 μM BHT(%)]×100

[2] = DPPH radical scavenging ability; type: biochemical; conditions: for BHT-Relative Antioxidant Ability (%) DPPH Method: sample concentration 500 μM, 50 minutes at room temperature, absorbance at 517 nm, relative to 500 μM BHT; for Radical scavenging ability (DPPH) compared in words with BHT or Pro-His-His: 500 μM
Excerpt: as §1
Next, DPPH was dissolved in ethanol to prepare 10 mL of 0.1 mM DPPH-ethanol solution, and 0.15 mL of this DPPH-ethanol solution and 0.15 mL of the above-prepared undiluted solution were mixed and stirred (the sample concentration: 500 μM). The reaction was allowed to proceed for 50 minutes at room temperature, and the absorbance at 517 nm wavelength was measured with a UV-VIS spectrophotometer (JASCO V-570). For blanks, a blank solution was prepared using the same volume of ethanol instead of DPPH, and the absorbance of the blank solution was measured via the same reaction condition. For controls, a control solution was prepared using ethanol instead of sample solutions, and the absorbance of the control solution was measured via the same reaction condition.
The DPPH radical scavenging ability was calculated according to the following formula.
Radical Scavenging Ability AntOx(%)=(Acon−Asam)/Acon×100
Acon=The absorbance of the control after being left to stand for 50 minutes. Asam=The absorbance of the sample after being left to stand for 50 minutes.
as §2
BHT-Relative Antioxidant Ability(%)=[AntOx(%)]/[500 μM BHT(%)]×100

[3] = molecular target: Mushroom tyrosinase (Agaricus bisporus, UniProt C7FF04); assay: Tyrosinase inhibitory activity with L-DOPA as substrate; type: biochemical; conditions: for IC50: pH 6.8, room temperature, absorbance at 475 nm for 60 seconds, read-out: IC50 for tyrosinase inhibition
Chain of Mushroom tyrosinase (G1K3P4 entry or part of it): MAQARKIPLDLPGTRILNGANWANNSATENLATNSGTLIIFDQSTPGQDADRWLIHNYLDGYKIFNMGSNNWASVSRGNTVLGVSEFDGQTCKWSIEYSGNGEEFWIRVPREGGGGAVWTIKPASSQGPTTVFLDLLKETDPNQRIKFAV
Chain of Mushroom tyrosinase (C7FF04 1-392): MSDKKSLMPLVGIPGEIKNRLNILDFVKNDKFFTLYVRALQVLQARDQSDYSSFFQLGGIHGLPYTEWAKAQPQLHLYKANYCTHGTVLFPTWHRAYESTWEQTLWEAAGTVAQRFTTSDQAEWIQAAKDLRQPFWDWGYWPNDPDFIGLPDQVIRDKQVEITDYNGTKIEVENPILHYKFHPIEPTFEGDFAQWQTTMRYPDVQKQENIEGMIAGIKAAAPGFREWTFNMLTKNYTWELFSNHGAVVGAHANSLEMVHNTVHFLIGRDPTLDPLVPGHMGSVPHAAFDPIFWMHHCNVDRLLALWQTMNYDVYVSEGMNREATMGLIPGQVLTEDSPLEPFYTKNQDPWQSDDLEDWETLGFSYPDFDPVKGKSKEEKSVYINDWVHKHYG
Procedure: Tyrosinase inhibitory activity of a peptide can be evaluated by a known method using tyrosinase and its substrate such as L-dihydroxyphenylalanine (L-DOPA) or L-tyrosine. Specific examples of the evaluation method are described in the Examples below. For example, a peptide whose tyrosinase inhibitory activity should be measured, tyrosinase, and its substrate are dissolved in phosphate buffer, respectively (the peptide and tyrosinase may be dissolved in the same solution). Immediately after mixing the three components, change in absorbance at 475 nm is measured with a spectrophotometer. Since melanin has an absorption maximum at 475 nm, absorbance at 475 nm increases if melanin is synthesized from L-DOPA by tyrosinase. […] Therefore, the tyrosinase inhibitory activity of a peptide can be evaluated based on the change in absorbance.
Mushroom tyrosinase (SIGMA-Aldrich, Missouri, USA)
L-DOPA (SIGMA-Aldrich, Missouri, USA)
50 mM Sodium phosphate buffer (pH 6.8)
Using 50 mM sodium phosphate buffer (pH 6.8), 5 mM L-DOPA solution, mushroom tyrosinase solution (2 units/μL) and 1 mM inhibitor stock solution (×10) were prepared.
Reaction Solution A (25 μL of 5 mM DOPA solution; 75 μL of 50 mM sodium phosphate buffer (pH 6.8)) and Reaction Solution B (25 μL of inhibitor stock solution; 12.5 μL of tyrosinase solution; 112.5 μL of 50 mM sodium phosphate buffer (pH 6.8)) were prepared in two Eppendorf tubes, respectively. Reaction Solutions A and B were mixed just before the measurement, and the absorbance at 475 nm wavelength was measured with a spectrophotometer (V-570, Jasco, Tokyo, Japan). The measurement was carried out for 60 seconds at room temperature, and the absorbance was recorded every 1 second. This operation was repeated 3 times for each sample concentration.
The tyrosinase activity ratio at each inhibitor concentration was calculated based on the control (tyrosinase alone) value, and IC50s for tyrosinase inhibition of the samples were calculated using Ngraph. The fitting formula below was used in the calculation.
y=a−(a−b)/(1+(x/c)̂d (a=Minimum value of y; b=Maximum value of y; c=[…]; d=Variable)

[4] = system: ddY mice; assay: Acute dermal toxicity study of mimosine cream; type: in vivo; conditions: cream applied to shaved trunk twice a day for three days; skins surveyed at day 5
Procedure: Vegetable emulsified wax (emulsifying wax, Orangeflower Inc., ingredients: stearyl alcohol, polysorbate 60) and oil (edible olive oil, Ajinomoto Co., Inc.) were completely melted in hot water (50° C.). Warm water (ultrapure water) was added thereto, and the mixture was mixed. An aqueous solution of mimosine or mimosine-introduced peptide was added thereto, and the mixture was completely mixed up. The obtained mixture was stored at 4° C. until use in the animal experiment.
The left and right sides of the trunk of ddY mice (9-week-old, male, 6 mice in each group) were shaved with clippers under anesthesia with ether. […] Any special changes were not observed. […] Therefore, it is thought that mimosine and mimosine-introduced peptide can be utilized in the cosmetic field.

Compound: Leu-Trp-Trp [Sample 6X, reference compound]
- BHT-Relative Antioxidant Ability (%) β-Carotene Method [1]: 28.28%
- BHT-Relative Antioxidant Ability (%) DPPH Method [2]: 73.27%

Compound: Pro-His-Mim [Sample 10]
- BHT-Relative Antioxidant Ability (%) β-Carotene Method [1]: 79.55%
- BHT-Relative Antioxidant Ability (%) DPPH Method [2]: 26.45%

Compound: Mim-His-Tyr [Sample 3]
- Antioxidant ability (β-carotene method) compared in words with BHT or Pro-His-His [1]: at the same level as BHT
- BHT-Relative Antioxidant Ability (%) β-Carotene Method [1]: 95.80%
- BHT-Relative Antioxidant Ability (%) DPPH Method [2]: 84.88%
- IC50 [3]: 8.84 µM

Compound: Arg-His-Trp [Sample 5X, reference compound]
- BHT-Relative Antioxidant Ability (%) β-Carotene Method [1]: 41.37%
- BHT-Relative Antioxidant Ability (%) DPPH Method [2]: 11.26%

Compound: Mim-Trp-Trp [Sample 6]
- BHT-Relative Antioxidant Ability (%) β-Carotene Method [1]: 72.56%
- Radical scavenging ability (DPPH) compared in words with BHT or Pro-His-His [2]: at the same level as or higher than BHT
- BHT-Relative Antioxidant Ability (%) DPPH Method [2]: 117.34%
- IC50 [3]: 28.2 µM

Compound: NC(Cn1ccc(=O)c(O)c1)C(=O)O (stereo not drawn) [Mimosine]
- Acute dermal toxicity (skin condition) [4]: neither mimosine nor a mimosine-introduced peptide has an acute dermal toxicity

Compound: Mim-His-Trp [Sample 5]
- Antioxidant ability (β-carotene method) compared in words with BHT or Pro-His-His [1]: at the same level as BHT
- BHT-Relative Antioxidant Ability (%) β-Carotene Method [1]: 92.66%
- Radical scavenging ability (DPPH) compared in words with BHT or Pro-His-His [2]: at the same level as or higher than BHT
- BHT-Relative Antioxidant Ability (%) DPPH Method [2]: 99.06%
- Tyrosinase inhibitory activity compared in words with mimosine or kojic acid [3]: higher than kojic acid
- IC50 [3]: 3.02 µM

Compound: Pro-His-Tyr [Sample 3X, reference compound]
- BHT-Relative Antioxidant Ability (%) β-Carotene Method [1]: 33.56%
- BHT-Relative Antioxidant Ability (%) DPPH Method [2]: 9.63%

Compound: Cc1cc(C(C)(C)C)c(O)c(C(C)(C)C)c1 [BHT, butylated hydroxytoluene, reference compound]
- BHT-Relative Antioxidant Ability (%) β-Carotene Method [1]: 100.00%
- BHT-Relative Antioxidant Ability (%) DPPH Method [2]: 100.00%

Compound: MimLys-Tyr [Sample 4]
- BHT-Relative Antioxidant Ability (%) β-Carotene Method [1]: 81.96%
- BHT-Relative Antioxidant Ability (%) DPPH Method [2]: 75.33%

Compound: Mim-Pro-His-His [Sample 1]
- Antioxidant ability (β-carotene method) compared in words with BHT or Pro-His-His [1]: at the same level as BHT
- BHT-Relative Antioxidant Ability (%) β-Carotene Method [1]: 93.86%
- Radical scavenging ability (DPPH) compared in words with BHT or Pro-His-His [2]: at the same level as or higher than BHT
- BHT-Relative Antioxidant Ability (%) DPPH Method [2]: 111.67%
- IC50 [3]: 16.4 µM

Compound: Mim-Arg-Tyr [Sample 2]
- BHT-Relative Antioxidant Ability (%) β-Carotene Method [1]: 66.77%
- BHT-Relative Antioxidant Ability (%) DPPH Method [2]: 77.89%

Compound: Tyr-Arg-Tyr [Sample 2X, reference compound]
- BHT-Relative Antioxidant Ability (%) β-Carotene Method [1]: 7.78%
- BHT-Relative Antioxidant Ability (%) DPPH Method [2]: 11.31%

Compound: Leu-His-Trp [Sample 8X, reference compound]
- BHT-Relative Antioxidant Ability (%) β-Carotene Method [1]: 46.79%
- BHT-Relative Antioxidant Ability (%) DPPH Method [2]: 41.92%

Compound: Leu-Trp-Mim [Sample 9]
- BHT-Relative Antioxidant Ability (%) β-Carotene Method [1]: 77.32%
- BHT-Relative Antioxidant Ability (%) DPPH Method [2]: 41.02%

Compound: Pro-Mim-His [Sample 7]
- BHT-Relative Antioxidant Ability (%) β-Carotene Method [1]: 73.07%
- BHT-Relative Antioxidant Ability (%) DPPH Method [2]: 37.04%

Compound: Leu-His-Mim [Sample 8]
- BHT-Relative Antioxidant Ability (%) β-Carotene Method [1]: 77.79%
- BHT-Relative Antioxidant Ability (%) DPPH Method [2]: 26.45%

Compound: Pro-His-His [Sample 1X, reference compound]
- BHT-Relative Antioxidant Ability (%) β-Carotene Method [1]: 63.00%
- BHT-Relative Antioxidant Ability (%) DPPH Method [2]: 23.01%

Compound: Tyr-Lys-Tyr [Sample 4X, reference compound]
- BHT-Relative Antioxidant Ability (%) β-Carotene Method [1]: 18.88%
- BHT-Relative Antioxidant Ability (%) DPPH Method [2]: 9.55%
